Laboratory results published in PMC5773651, “Customised in vitro model to detect human metabolism-dependent idiosyncratic drug-induced liver injury” (Archives of Toxicology, 2017).
Where two headings read alike, the source gives them in different places. Marks after values point to notes of the source that are not given here. One block for each molecule: values may come before it.

Key:
[1] = test system: HepG2 cells transduced with AdCYP2C19; assay: HCS hepatotoxicity assay (MEC, TR), AdCYP2C19-HepG2; assay type: cell-based, human; conditions: 24 h; for TR: TR = 100 x Cmax/lowest MEC; for MEC Apoptosis / MEC Calcium / MEC MMP / MEC Mitochondrial superoxide / MEC ROS: unit inferred, tested range in µM
Procedure: (§1) For subculturing purposes, cells were detached by treatment with 0.25% trypsin/0.02% EDTA at 37 °C. For the adenovirus infection studies, cells were seeded in 96-well plates (5000 cells/well) and adenovirus-containing medium was added 48 h later. After 24 h, cells were transferred to the adenovirus-free medium and cultured for an additional 24-h period prior to the incubations performed with the test chemicals. To optimise the expression of the functional enzymes in the adenovirus-transduced HepG2 (Ad-HepG2) cells, different doses (MOI, multiplicity of infection, defined as plaque formation units per cell) of each adenovirus were tested.
(§2) The drugs included in the study were chosen based on previous information about their hepatotoxicity. Information on the potential mechanisms implicated in the toxicity of each compound and the major enzymes involved in their metabolism is summarised in Table 1. HepG2 or Ad-HepG2 (48 h post-infection) cells were exposed for 24 h to eight concentrations of the tested compounds. Each experimental condition was repeated independently three times (with three wells measured each time). The stock solutions of compounds were prepared in DMSO and were conveniently diluted in the culture medium to obtain the desired final concentrations. The final DMSO concentration in the culture medium was 0.5% (v/v), and the control cultures were treated with the same amount of solvent.
(§3) Following treatments, cells were simultaneously loaded with several fluorescent dyes to measure multiple biomarkers of cell toxicity. […] Information about the probes is summarised in Supplementary Table S2.
(§4) After incubating with dyes, cells were imaged by the Scan^R system (Olympus, Germany). Dyes were excited, and their fluorescence was monitored at the excitation and emission wavelengths at appropriate filter settings. The collected images were analysed using the Scan^R analysis module, which allows the simultaneous quantification of subcellular structures that are stained by different fluorescent probes.

[2] = test system: HepG2 cells transduced with AdCYP1A2; assay: HCS hepatotoxicity assay (MEC, TR), AdCYP1A2-HepG2; assay type: cell-based, human; conditions: 24 h; for MEC Apoptosis / MEC Calcium / MEC MMP / MEC Mitochondrial superoxide / MEC ROS: unit inferred, tested range in µM; for TR: TR = 100 x Cmax/lowest MEC
Procedure: as §1, §2, §3, §4

[3] = test system: HepG2 cells transduced with AdCYP2C19; assay: Cell viability (PI), IC50, AdCYP2C19-HepG2; assay type: cell-based; conditions: Homo sapiens, unit inferred, tested range in µM
Procedure: as §1, §2, §3, §4

[4] = test system: HepG2 cells transduced with AdCYP1A2; assay: Cell viability (PI), IC50, AdCYP1A2-HepG2; assay type: cell-based; conditions: Homo sapiens, unit inferred, tested range in µM
Procedure: as §1, §2, §3, §4

[5] = test system: HepG2 cells transduced with AdCYP3A4; assay: Cell viability (PI), IC50, AdCYP3A4-HepG2; assay type: cell-based; conditions: Homo sapiens, unit inferred, tested range in µM
Procedure: as §1, §2, §3, §4

[6] = ref Atienzar et al. ([2014]), Garside et al. ([2014]), Tolosa et al. ([2012b]); cited from earlier work
[7] = cited from earlier work; for Bioactivation / Enzyme: major enzyme(s) involved in the bioactivation (denoted as *) or detoxification of the drug: previous information; for Toxicity (mechanisms of toxicity): ref Ashrafian et al. [2007], Donato et al. [2009], Fromenty and Pessayre [1997], Rolo et al. [2000], Tolosa et al. [2012b]; for DILI category: ref Gustafsson et al. ([2014])
HepG2 cells [8] = conditions: human, 24 h
Procedure: as §1, §2, §3, §4

HepG2 cells [9] = assay: Cell viability (PI), IC50, control HepG2 cells; assay type: cell-based; conditions: Homo sapiens; control non-transduced HepG2; 24 h; unit inferred, tested range in µM; read-out: IC50 (cell viability), C
[10] = test system: HepG2 cells transduced with AdCYP3A4; assay: HCS hepatotoxicity assay (MEC, TR), AdCYP3A4-HepG2; assay type: cell-based, human; conditions: 24 h; for TR: TR = 100 x Cmax/lowest MEC; for MEC Apoptosis / MEC Calcium / MEC MMP / MEC Mitochondrial superoxide / MEC ROS: unit not given, tested range in µM
[11] = test system: HepG2 cells transduced with AdCYP2D6; assay: HCS hepatotoxicity assay (MEC, TR), AdCYP2D6-HepG2; assay type: cell-based, human; conditions: 24 h; for TR: TR = 100 x Cmax/lowest MEC; for MEC Apoptosis / MEC Calcium / MEC Lipids / MEC MMP / MEC Mitochondrial superoxide / MEC ROS: unit inferred, tested range in µM
Procedure: as §1, §2, §3, §4

[12] = test system: HepG2 cells transduced with AdCYP2D6; assay: Cell viability (PI), IC50, AdCYP2D6-HepG2; assay type: cell-based; conditions: Homo sapiens, unit inferred, tested range in µM
Procedure: as §1, §2, §3, §4

IC50 ([3]; ADV CYP2C19 x1, 24 h, read-out: IC50 (cell viability), ADV dose x1): 344 µM | IC50 ([3]; ADV CYP2C19 x4, 24 h, read-out: IC50 (cell viability), ADV dose x4): 309 µM | IC50 ([3]; ADV CYP2C19 x10, 24 h, read-out: IC50 (cell viability), ADV dose x10): 255 µM | IC50 ([4]; ADV CYP1A2 x1, 24 h, read-out: IC50 (cell viability), ADV dose x1): 384 µM | IC50 ([4]; ADV CYP1A2 x4, 24 h, read-out: IC50 (cell viability), ADV dose x4): 261 µM | IC50 ([4]; ADV CYP1A2 x10, 24 h, read-out: IC50 (cell viability), ADV dose x10): 248 µM | IC50 ([5]; ADV CYP3A4 x1, 24 h, read-out: IC50 (cell viability), ADV dose x1): 219 µM | IC50 ([5]; ADV CYP3A4 x4, 24 h, read-out: IC50 (cell viability), ADV dose x4): 176 µM | IC50 ([5]; ADV CYP3A4 x10, 24 h, read-out: IC50 (cell viability), ADV dose x10): 145 µM | MEC Calcium (HepG2 cells [8]): 500 | MEC MMP (HepG2 cells [8]): 500 | MEC Mitochondrial superoxide (HepG2 cells [8]): 500 | MEC ROS (HepG2 cells [8]): 500 | TR (HepG2 cells [8]): 1.2 | IC50 (HepG2 cells [9]): 398 µM
SMILES: CC(C)C(=O)Nc1ccc([N+](=O)[O-])c(C(F)(F)F)c1 [Flutamide]
TR ([1]; AdCYP 2C19 1x): 2.5 | MEC Apoptosis ([1]; AdCYP 2C19 1x): 250 µM | MEC Calcium ([1]; AdCYP 2C19 1x): 250 µM | MEC MMP ([1]; AdCYP 2C19 1x): 250 µM | MEC Mitochondrial superoxide ([1]; AdCYP 2C19 1x): 250 µM | MEC ROS ([1]; AdCYP 2C19 1x): 250 µM | TR ([1]; AdCYP 2C19 4x): 6.2 | MEC Apoptosis ([1]; AdCYP 2C19 4x): 250 µM | MEC Calcium ([1]; AdCYP 2C19 4x): 100 µM | MEC MMP ([1]; AdCYP 2C19 4x): 250 µM | MEC Mitochondrial superoxide ([1]; AdCYP 2C19 4x): 250 µM | MEC ROS ([1]; AdCYP 2C19 4x): 250 µM | TR ([1]; AdCYP 2C19 10x): 12.4 | MEC Apoptosis ([1]; AdCYP 2C19 10x): 100 µM | MEC Calcium ([1]; AdCYP 2C19 10x): 75 µM | MEC MMP ([1]; AdCYP 2C19 10x): 250 µM | MEC Mitochondrial superoxide ([1]; AdCYP 2C19 10x): 50 µM | MEC ROS ([1]; AdCYP 2C19 10x): 50 µM | MEC Apoptosis ([2]; AdCYP 1A2 1x): 250 µM | MEC Calcium ([2]; AdCYP 1A2 1x): 500 µM | MEC MMP ([2]; AdCYP 1A2 1x): 500 µM | MEC Mitochondrial superoxide ([2]; AdCYP 1A2 1x): 75 µM | MEC ROS ([2]; AdCYP 1A2 1x): 500 µM | TR ([2]; AdCYP 1A2 4x): 12.4 | MEC Apoptosis ([2]; AdCYP 1A2 4x): 250 µM | MEC Calcium ([2]; AdCYP 1A2 4x): 500 µM | MEC MMP ([2]; AdCYP 1A2 4x): 500 µM | MEC Mitochondrial superoxide ([2]; AdCYP 1A2 4x): 50 µM | MEC ROS ([2]; AdCYP 1A2 4x): 500 µM | TR ([2]; AdCYP 1A2 10x): 12.4 | MEC Apoptosis ([2]; AdCYP 1A2 10x): 125 µM | MEC Calcium ([2]; AdCYP 1A2 10x): 50 µM | MEC MMP ([2]; AdCYP 1A2 10x): 500 µM | MEC Mitochondrial superoxide ([2]; AdCYP 1A2 10x): 50 µM | MEC ROS ([2]; AdCYP 1A2 10x): 250 µM | Cmax [6]: 6.2 µM | Bioactivation [7]: Yes | Enzyme: major enzyme(s) involved in the bioactivation (denoted as *) or detoxification of the drug [7]: CYP1A2*, CYP2C19*, CYP3A4* | Toxicity (mechanisms of toxicity) [7]: MI, OS | DILI category [7]: Severe | MEC Apoptosis (HepG2 cells [8]): 500 µM | TR ([10]; AdCYP 3A4 1x): 2.5 | MEC Apoptosis ([10]; AdCYP 3A4 1x): 500 | MEC Calcium ([10]; AdCYP 3A4 1x): 250 | MEC MMP ([10]; AdCYP 3A4 1x): 750 | MEC Mitochondrial superoxide ([10]; AdCYP 3A4 1x): 500 | MEC ROS ([10]; AdCYP 3A4 1x): 250 | TR ([10]; AdCYP 3A4 4x): 5.0 | MEC Apoptosis ([10]; AdCYP 3A4 4x): 250 | MEC Calcium ([10]; AdCYP 3A4 4x): 250 | MEC MMP ([10]; AdCYP 3A4 4x): 500 | MEC Mitochondrial superoxide ([10]; AdCYP 3A4 4x): 250 | MEC ROS ([10]; AdCYP 3A4 4x): 125 | TR ([10]; AdCYP 3A4 10x): 5.0 | MEC Apoptosis ([10]; AdCYP 3A4 10x): 125 | MEC Calcium ([10]; AdCYP 3A4 10x): 250 | MEC MMP ([10]; AdCYP 3A4 10x): 250 | MEC Mitochondrial superoxide ([10]; AdCYP 3A4 10x): 125 | MEC ROS ([10]; AdCYP 3A4 10x): 125

IC50 ([12]; ADV CYP2D6 x1, 24 h, read-out: IC50 (cell viability), ADV dose x1): 24.4 µM | IC50 ([12]; ADV CYP2D6 x4, 24 h, read-out: IC50 (cell viability), ADV dose x4): 25.5 µM | IC50 ([12]; ADV CYP2D6 x10, 24 h, read-out: IC50 (cell viability), ADV dose x10): 27.4 µM | MEC Calcium (HepG2 cells [8]): 10 | MEC Lipids (HepG2 cells [8]): 10 | MEC MMP (HepG2 cells [8]): 22.5 | MEC Mitochondrial superoxide (HepG2 cells [8]): 10 | MEC ROS (HepG2 cells [8]): 25 | TR (HepG2 cells [8]): 22 | IC50 (HepG2 cells [9]): 22.5 µM
SMILES: C1CCC(C(CC2CCCCN2)C2CCCCC2)CC1 (centres unmarked) [Perhexiline]
Bioactivation [7]: No | Enzyme: major enzyme(s) involved in the bioactivation (denoted as *) or detoxification of the drug [7]: CYP2D6 | Toxicity (mechanisms of toxicity) [7]: MI, ST | DILI category [7]: Severe | TR ([11]; AdCYP 2D6 1x): 17.6 | MEC Apoptosis ([11]; AdCYP 2D6 1x): 22.5 µM | MEC Calcium ([11]; AdCYP 2D6 1x): 12.5 µM | MEC Lipids ([11]; AdCYP 2D6 1x): > 27.5 µM | MEC MMP ([11]; AdCYP 2D6 1x): 22.5 µM | MEC Mitochondrial superoxide ([11]; AdCYP 2D6 1x): 22.5 µM | MEC ROS ([11]; AdCYP 2D6 1x): > 27.5 µM | TR ([11]; AdCYP 2D6 4x): 17.6 | MEC Apoptosis ([11]; AdCYP 2D6 4x): 25 µM | MEC Calcium ([11]; AdCYP 2D6 4x): 12.5 µM | MEC Lipids ([11]; AdCYP 2D6 4x): > 27.5 µM | MEC MMP ([11]; AdCYP 2D6 4x): 27.5 µM | MEC Mitochondrial superoxide ([11]; AdCYP 2D6 4x): 22.5 µM | MEC ROS ([11]; AdCYP 2D6 4x): > 27.5 µM | TR ([11]; AdCYP 2D6 10x): 17.6 | MEC Apoptosis ([11]; AdCYP 2D6 10x): 25 µM | MEC Calcium ([11]; AdCYP 2D6 10x): 12.5 µM | MEC Lipids ([11]; AdCYP 2D6 10x): > 27.5 µM | MEC MMP ([11]; AdCYP 2D6 10x): > 27.5 µM | MEC Mitochondrial superoxide ([11]; AdCYP 2D6 10x): 22.5 µM | MEC ROS ([11]; AdCYP 2D6 10x): > 27.5 µM | MEC Apoptosis (HepG2 cells [8]): 15 µM
